Results on six compounds are retold here after article PMC10223284, “Category-Based Toxicokinetic Evaluations of Data-Poor Per- and Polyfluoroalkyl Substances (PFAS) using Gas Chromatography Coupled with Mass Spectrometry” (Toxics, 2023).

A short description of series [1]: Abiotic loss in negative controls of the hepatocyte clearance assay (cell-free media, metabolically inactivated hepatocytes). The series is classed as in vitro ADME. Particulars: flag for stability failure in hepatocyte clearance assay controls (1 or Fst = fail, 0 = pass). The essentials:
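Abiotic stability was checked with media-only and inactivated-hepatocyte controls, run at T0 and T240 or, on rerun, at more time points. Compound at 1 μM, 37 °C, acetonitrile quench. Loss rates served for background subtraction, and ≥50% loss by T120 meant exclusion.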

Series [2] deals with human plasma. Description: Chemical stability in plasma over the UC assay time course (T5hr/T1hr). Particulars: for Time 1 hr / Time 1 hr, Run-specific Avg: amount measured in plasma sample at 1 hr; for Time 1 hr / Time 5 hr: replicates A, B, C; for Time 1 hr / Time 1 hr, Run-specific Avg / Time 5 hr / Time 5 hr, Run-specific Avg: unit not given; for Time 1 hr, Run-specific Avg / Time 5 hr, Run-specific Avg: run average; for Time 5 hr / Time 5 hr, Run-specific Avg: amount measured in plasma sample at 5 hr; for % remaining_PPB: chemical remaining in plasma over the PPB assay time course, NS = no significant loss; for PPB_Stab_Fail: flag for stability failure in the plasma protein binding assay (1 = fail, 0 = pass); for Fstable.Med: median fraction stable in plasma, UC assay Level4; for Stability (T5hr/ T1hr), replicates A, B, C: single replicate of one UC run.

Series [3] concerns human plasma. Description: Ultracentrifugation (UC) plasma protein binding assay, fraction unbound in plasma (fup). As to conditions: for Aqueous Fraction / Aqueous Fraction, Run-specific Avg: amount measured in aqueous fraction after ultracentrifugation, unit not given; for Aqueous Fraction: replicates A, B, C; for Aqueous Fraction, Run-specific Avg: run average; for Fup.Med: median fraction unbound in plasma; for Fup.Med / Fup.point: UC assay Level4; for Fup.point: point estimate of fraction unbound in plasma; for Fraction Unbound (fu), replicates A, B, C: single replicate of one UC run (aqueous fraction / Time 5 hr).

A further series is described as follows: in vitro. Particulars: both, human, plasma.
[4] abbreviates: mean T5hr/T1hr ratio in plasma over all replicates/runs.
[5] abbreviates: Fraction Unbound (fu), Run-specific Avg, average of one UC run.
The mark [6] stands for this setting: Mean Fu, mean fraction unbound in human plasma over all UC replicates/runs.
Setting [7] is: Fraction Unbound (fu), individual replicates A, B, C of the UC run named in c8.
[8] abbreviates: Mean fu, fraction unbound in human plasma, ultracentrifugation, some values based on eLOQ.
Where [9] appears, read: average of one UC run (run date in line above).
Where [10] appears, read: mean T5hr/T1hr ratio over all replicates and runs, plasma.
The mark [11] stands for this setting: Fraction Unbound (fu), Run-specific Avg, average of one UC run (run date in line above).
Where [12] appears, read: Fraction Unbound (fu), replicates A, B, C, single replicate of one UC run (aqueous fraction / Time 5 hr).
The mark [13] stands for this setting: Mean Fu, mean fraction unbound over all replicates and runs, UC assay, human plasma.

Values joined by “and” are separate entries in the source; they are usually repeats but may differ in a detail not shown here. Equal values may be shown once.

Turning to `C=C(C)C(=O)OCC(F)(F)C(F)(F)C(F)(F)C(F)F` [1H,1H,5H-Perfluoropentyl methacrylate], the Hep_Stab_Fail in series [1] is recorded as 1. Also, in the series on human plasma [2], the “Time 1 hr” value was 1599.93 and 1543.59 and 1278.91; the “Time 1 hr, Run-specific Avg” value is 1474.15; the “Time 5 hr” value was 75.2443 and 72.767 and 69.0294; the “Time 5 hr, Run-specific Avg” value is 74.01. In the series with human plasma [2], the “% remaining_PPB” value came out at 0.01%, the PPB_Stab_Fail is recorded as 1 and the Fstable.Med is reported as 0.00623. Besides, in the series with human plasma [2] (average of one UC run), the “Stability (T5hr/ T1hr), Run-specific Avg” value is reported as 0.050. Moreover, the “Mean Stability” value in the series with human plasma [2] (setting [4]) came to 0.050. Further, in the series with human plasma [3], the “Aqueous Fraction” value was 25.8202 and 12.2631 and 16.0467; the “Aqueous Fraction, Run-specific Avg” value is on record as 18.04; the Fup.Med is 0.267; the Fup.point was 0.249. For the same compound, the fraction unbound in the series “in vitro” (setting [5]) was 0.25. The same compound yielded a free fraction (fraction unbound) in “in vitro” (setting [6]) of 0.248.

Turning to `FC(F)(I)C(F)(F)C(F)(F)C(F)(F)I` [Perfluoro-1,4-diiodobutane], the Hep_Stab_Fail in series [1] is reported as 1. In the series on human plasma [2], the “Time 1 hr” value was 1436.94 and 1194.41 and 1213.84; the “Time 1 hr, Run-specific Avg” value is 1281.73; the “Time 5 hr” value was 860.037 and 995.998 and 977.671; the “Time 5 hr, Run-specific Avg” value is on record as 928.02. In the series with human plasma [2], this compound showed a PPB_Stab_Fail of 0 and a Fstable.Med of 0.11. Besides, the “Stability (T5hr/ T1hr), Run-specific Avg” value in the series with human plasma [2] (average of one UC run) is reported as 0.724. Moreover, the “Mean Stability” value in the series on human plasma [2] (setting [4]) came to 0.740. Moreover, in the series with human plasma [3], the “Aqueous Fraction” value is 6.005 and 3.594 and 5.646; the “Aqueous Fraction, Run-specific Avg” value was 5.08; the Fup.Med worked out at 0.00723; the Fup.point is on record as 0.00533. For the same compound, in “in vitro” (setting [5]), the unbound share (fraction unbound) came to 0.00546. The same compound returned a fraction unbound in the series “in vitro” (setting [7]) of 0.00698. This compound also gave a fraction unbound in “in vitro” (setting [6]) of 0.00546. Moreover, the fraction unbound in the series “in vitro” (setting [8]) was 0.0055.

In series [1], `OCCCC(F)(F)C(F)(F)C(F)(F)F` [3-(Perfluoropropyl)propanol] yielded a Hep_Stab_Fail of 1. In addition, in the series on human plasma [2] (setting [9]), the “Stability (T5hr/ T1hr), Run-specific Avg” value is listed as 0.890. In the series on human plasma [2], the PPB_Stab_Fail was 0; the Fstable.Med came out at 0.2; the “Stability (T5hr/ T1hr), replicates A, B, C” value (“Stability (T5hr/ T1hr) … B, C” for short) is 0.858 and 0.887 and 0.929. Moreover, the “Mean Stability” value in the series with human plasma [2] (setting [10]) was determined as 0.892. For the same compound, in the series on human plasma [3], the Fup.Med turned out to be 0.202; the Fup.point is on record as 0.205; the “Fraction Unbound (fu), replicates A, B, C” value (“Fraction Unbound (fu)” below) was 0.224 and 0.207. Moreover, the free fraction (fraction unbound) in “in vitro” (setting [11]) is 0.2. This compound registered a fraction unbound in “in vitro” (setting [12]) of 0.179. For the same compound, in the series “in vitro” (setting [13]), the fraction unbound came out at 0.203. Moreover, the fraction unbound in “in vitro” (setting [8]) was 0.203.

Take `C=C(C)C(=O)OCCC(F)(F)C(F)(F)C(F)(F)C(F)(F)C(F)(C(F)(F)F)C(F)(F)F` [(Perfluoro-5-methylhexyl)ethyl 2-methylprop-2-enoate]: the Hep_Stab_Fail in series [1] was 1. In the series with human plasma [2], the “% remaining_PPB” value is given as 63.6% and the Fstable.Med amounted to 0.43. Moreover, in the series with human plasma [3], the Fup.Med came to 4.30E-06 and the Fup.point was 0.0603. In “in vitro” (setting [8]), this compound yielded a fraction unbound of 0.0603.

`FC(F)(I)C(F)(F)C(F)(F)C(F)(F)C(F)(F)C(F)(F)I` [1,6-Diiodoperfluorohexane]: the Hep_Stab_Fail in series [1] came out at 1. Besides, in the series with human plasma [2], the “Time 1 hr” value was 8774.08 and 7745.84 and 7383.58; the “Time 1 hr, Run-specific Avg” value is recorded as 7967.83; the “Time 5 hr” value was 5893.98 and 5567.71 and 5583.03; the “Time 5 hr, Run-specific Avg” value worked out at 5730.84. Moreover, in the series on human plasma [2], the “% remaining_PPB” value was found to be 72%; the PPB_Stab_Fail is given as 0; the Fstable.Med is given as 0.577; the “Stability (T5hr/ T1hr) … B, C” value is 0.7185 and 0.686 and 0.6511. Further, the “Stability (T5hr/ T1hr), Run-specific Avg” value in the series on human plasma [2] (average of one UC run) amounted to 0.719. Further, the “Stability (T5hr/ T1hr), Run-specific Avg” value in the series with human plasma [2] (setting [9]) amounted to 0.687. The “Mean Stability” value with human plasma [2] (setting [4]) stood at 0.718. Moreover, the “Mean Stability” value with human plasma [2] (setting [10]) is listed as 0.685. Moreover, in the series on human plasma [3], the “Aqueous Fraction” value was 94.9667 and 176.609 and 162.022; the “Aqueous Fraction, Run-specific Avg” value was 144.53; the Fup.Med is 0.295; the Fup.point was 0.267. Also, the “Fraction Unbound (fu)” value in the series on human plasma [3] was 0.5494 and 0.308 and 0.227. In “in vitro” (setting [5]), this compound displayed a fraction unbound of 0.0256. Further, the fraction unbound in the series “in vitro” (setting [11]) came out at 0.36. Further, the fraction unbound in the series “in vitro” (setting [7]) turned out to be 0.0161. Further, the unbound share (fraction unbound) in the series “in vitro” (setting [13]) came to 0.361. Also, the fraction unbound in “in vitro” (setting [8]) was 0.026.

On to `O=C(CC(=O)C(F)(F)C(F)(F)C(F)(F)F)c1cccs1` [(Perfluorobutyryl)-2-thenoylmethane], for which the Hep_Stab_Fail result in series [1] is on record as “Fst”. Besides, in the series on human plasma [2] (setting [9]), the “Stability (T5hr/ T1hr), Run-specific Avg” value is recorded as 1.277. Also, in the series on human plasma [2], the “% remaining_PPB” value was 100%; the PPB_Stab_Fail amounted to 0; the Fstable.Med is 0.959; the “Stability (T5hr/ T1hr) … B, C” value was 1.693 and 1.2724 and 0.868. Further, the “Mean Stability” value in the series on human plasma [2] (setting [10]) is listed as 1.278. Moreover, in the series with human plasma [3], the Fup.Med stood at 0.00944; the Fup.point is recorded as 0.00576; the “Fraction Unbound (fu)” value is 0.006374 and 0.006195. In addition, the unbound share (fraction unbound) in the series “in vitro” (setting [11]) stood at 0.00714. In addition, the unbound share (fraction unbound) in “in vitro” (setting [12]) is 0.00885. Moreover, the fraction unbound in “in vitro” (setting [13]) was determined as 0.007. Also, the free fraction (fraction unbound) in “in vitro” (setting [8]) worked out at 0.006.

What is called fraction unbound is free concentration divided by total concentration.
